Experimental data published in ChEMBL document CHEMBL1909294, “Translating clinical findings into knowledge in drug safety evaluation--drug induced liver injury prediction system (DILIps)” (PLoS Comput Biol, 2011).

Columns and labels:
[1] = test system: Hepatotoxicity;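 as to HepSE bilirubinemia: bilirubinemia hepatic side effect score drawn from the DILIps training data, a prediction system for drug-induced liver injury; call rule not given here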;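 as to HepSE cirrhosis: cirrhosis hepatic side effect score taken from the DILIps (drug-induced liver injury prediction) training set; call rule not given here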;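 as to HepSE elevated liver function tests: hepatic side effect score for raised liver function tests, as recorded in the DILIps training set used for predicting drug-induced liver injury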;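 as to HepSE hepatomegaly: hepatic side effect score for hepatomegaly, taken from the training set of the DILIps drug-induced liver injury prediction system; call rule not given here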;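 as to HepSE jaundice: Jaundice-related hepatic side-effect score drawn from the training data of the DILIps (drug-induced liver injury prediction system); call rule not given here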; as to HepSE liver disease: call rule not given here;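 as to HepSE liver fatty: hepatic side effect score for fatty liver, taken from the DILIps training set for predicting drug-induced liver injury; call rule not given here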
[2] = test system: Hepatotoxicity; remark: listed apart in the source;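 as to HepSE bilirubinemia: bilirubinemia hepatic side effect score drawn from the DILIps training data, a prediction system for drug-induced liver injury; call rule not given here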;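 as to HepSE cirrhosis: cirrhosis hepatic side effect score taken from the DILIps (drug-induced liver injury prediction) training set; call rule not given here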;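 as to HepSE elevated liver function tests: hepatic side effect score for raised liver function tests, as recorded in the DILIps training set used for predicting drug-induced liver injury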;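 as to HepSE jaundice: Jaundice-related hepatic side-effect score drawn from the training data of the DILIps (drug-induced liver injury prediction system); call rule not given here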; as to HepSE liver disease: call rule not given here;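 as to HepSE liver fatty: hepatic side effect score for fatty liver, taken from the DILIps training set for predicting drug-induced liver injury; call rule not given here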
[3] = test system: Hepatotoxicity; remark: listed apart in the source;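 as to HepSE bilirubinemia: bilirubinemia hepatic side effect score drawn from the DILIps training data, a prediction system for drug-induced liver injury; call rule not given here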;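 as to HepSE cirrhosis: cirrhosis hepatic side effect score taken from the DILIps (drug-induced liver injury prediction) training set; call rule not given here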;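 as to HepSE elevated liver function tests: hepatic side effect score for raised liver function tests, as recorded in the DILIps training set used for predicting drug-induced liver injury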;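 as to HepSE jaundice: Jaundice-related hepatic side-effect score drawn from the training data of the DILIps (drug-induced liver injury prediction system); call rule not given here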; as to HepSE liver disease: call rule not given here;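 as to HepSE liver fatty: hepatic side effect score for fatty liver, taken from the DILIps training set for predicting drug-induced liver injury; call rule not given here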
[4] = test system: Hepatotoxicity; remark: listed apart in the source;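 as to HepSE bilirubinemia: bilirubinemia hepatic side effect score drawn from the DILIps training data, a prediction system for drug-induced liver injury; call rule not given here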;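 as to HepSE cirrhosis: cirrhosis hepatic side effect score taken from the DILIps (drug-induced liver injury prediction) training set; call rule not given here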;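 as to HepSE elevated liver function tests: hepatic side effect score for raised liver function tests, as recorded in the DILIps training set used for predicting drug-induced liver injury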;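 as to HepSE jaundice: Jaundice-related hepatic side-effect score drawn from the training data of the DILIps (drug-induced liver injury prediction system); call rule not given here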; as to HepSE liver disease: call rule not given here;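 as to HepSE liver fatty: hepatic side effect score for fatty liver, taken from the DILIps training set for predicting drug-induced liver injury; call rule not given here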
[5] = test system: Hepatotoxicity; remark: listed apart in the source; as to HepSE liver disease: call rule not given here
[6] = test system: Hepatotoxicity; remark: listed apart in the source; as to HepSE liver disease: call rule not given here
[7] = test system: Hepatotoxicity; remark: listed apart in the source
[8] = test system: Hepatotoxicity; remark: listed apart in the source
[9] = test system: Hepatotoxicity; remark: listed apart in the source
[10] = test system: Hepatotoxicity; remark: listed apart in the source
[11] = test system: Hepatotoxicity; remark: listed apart in the source
[12] = test system: Hepatotoxicity; remark: listed apart in the source
[13] = test system: Hepatotoxicity; remark: listed apart in the source
[14] = test system: Hepatotoxicity; remark: listed apart in the source

Row | Structure (SMILES) | HepSE_bilirubinemia [1] | HepSE_jaundice [2] | HepSE_hepatic necrosis [3] | HepSE_cirrhosis [4] | HepSE_liver fatty [5] | HepSE_cholelithiasis [6] | HepSE_liver disease [7] | HepSE_hepatitis [8] | HepSE_elevated liver function tests [9] | HepSE_hepatomegaly [10] | HepSE_hepatic failure [11] | HepSE_Combined Scores [12] | HepSE_cholecystitis [13] | HepSE_liver function tests abnormal [14] | further results
1 | CCN1CC(CCN2CCOCC2)C(c2ccccc2)(c2ccccc2)C1=O (configuration not stated) [DOXAPRAM] | 0 | 0 | 0 | 0 | 0 | 0 | 0 | 0 | 0 | 0 | 0 | 0 | 0 | 0 | –
2 | COc1cc2nc(N3CCN(C(=O)C4COc5ccccc5O4)CC3)nc(N)c2cc1OC (configuration not stated) [DOXAZOSIN] | 0 | 1 | 0 | 0 | 0 | 1 | 0 | 1 | 0 | 0 | 0 | 4 | 0 | 1 | –
3 | CN(C)CCC=C1c2ccccc2COc2ccccc21 [DOXEPIN] | 0 | 1 | 0 | 0 | 0 | 0 | 0 | 0 | 0 | 0 | 0 | 1 | 0 | 0 | –
4 | COc1cccc2c1C(=O)c1c(O)c3c(c(O)c1C2=O)C[C@@](O)(C(=O)CO)C[C@@H]3O[C@H]1C[C@H](N)[C@H](O)[C@H](C)O1 [DOXORUBICIN] | 1 | 1 | 0 | 0 | 0 | 0 | 0 | 1 | 0 | 0 | 1 | 5 | 0 | 1 | –
5 | Cc1cn([C@H]2C[C@H](O)[C@@H](CO)O2)c(=O)[nH]c1=O [DOXRIBTIMINE] | 0 | 0 | 0 | 0 | 0 | 0 | 0 | 1 | 0 | 0 | 0 | 1 | 0 | 0 | –
6 | C[C@H]1c2cccc(O)c2C(=O)C2=C(O)[C@]3(O)C(=O)C(C(N)=O)=C(O)[C@@H](N(C)C)[C@@H]3[C@@H](O)[C@@H]21.O [DOXYCYCLINE] | 0 | 0 | 0 | 0 | 0 | 0 | 0 | 0 | 0 | 0 | 0 | 0 | 0 | 0 | –
7 | CCCCCc1cc(O)c2c(c1)OC(C)(C)[C@@H]1CCC(C)=C[C@@H]21 [DRONABINOL] | 0 | 0 | 0 | 0 | 0 | 0 | 0 | 0 | 0 | 0 | 0 | 0 | 0 | 0 | –
8 | CNCC[C@H](Oc1cccc2ccccc12)c1cccs1 [DULOXETINE] | – | – | – | – | – | – | – | – | – | – | – | – | – | – | HepSE_bilirubinemia ([1]; Liver): 0; HepSE_jaundice ([2]; Liver): 1; HepSE_hepatic necrosis ([3]; Liver): 0; HepSE_cirrhosis ([4]; Liver): 0; HepSE_liver fatty ([5]; Liver): 1; HepSE_cholelithiasis ([6]; Liver): 0; HepSE_liver disease ([7]; Liver): 0; HepSE_hepatitis ([8]; Liver): 1; HepSE_elevated liver function tests ([9]; Liver): 0; HepSE_hepatomegaly ([10]; Liver): 0; HepSE_hepatic failure ([11]; Liver): 0; HepSE_Combined Scores ([12]; Liver): 3; HepSE_cholecystitis ([13]; Liver): 0; HepSE_liver function tests abnormal ([14]; Liver): 0
9 | C[C@]12C=CC(=O)N[C@@H]1CC[C@@H]1[C@@H]2CC[C@]2(C)[C@@H](C(=O)Nc3cc(C(F)(F)F)ccc3C(F)(F)F)CC[C@@H]12 [DUTASTERIDE] | 0 | 0 | 0 | 0 | 0 | 0 | 0 | 0 | 0 | 0 | 0 | 0 | 0 | 0 | –
10 | Clc1ccc(COC(Cn2ccnc2)c2ccc(Cl)cc2Cl)cc1 (configuration not stated) [ECONAZOLE] | 0 | 0 | 0 | 0 | 0 | 0 | 0 | 0 | 0 | 0 | 0 | 0 | 0 | 0 | –
11 | O=C(O)CN(CCN(CC(=O)O)CC(=O)O)CC(=O)O [EDETIC ACID] | – | – | – | – | – | – | – | – | – | – | – | – | – | – | HepSE_bilirubinemia ([1]; Liver): 0; HepSE_jaundice ([2]; Liver): 0; HepSE_hepatic necrosis ([3]; Liver): 0; HepSE_cirrhosis ([4]; Liver): 0; HepSE_liver fatty ([5]; Liver): 0; HepSE_cholelithiasis ([6]; Liver): 0; HepSE_liver disease ([7]; Liver): 0; HepSE_hepatitis ([8]; Liver): 0; HepSE_elevated liver function tests ([9]; Liver): 0; HepSE_hepatomegaly ([10]; Liver): 0; HepSE_hepatic failure ([11]; Liver): 0; HepSE_Combined Scores ([12]; Liver): 0; HepSE_cholecystitis ([13]; Liver): 0; HepSE_liver function tests abnormal ([14]; Liver): 0
12 | O=C1Nc2ccc(Cl)cc2[C@@](C#CC2CC2)(C(F)(F)F)O1 [EFAVIRENZ] | 0 | 1 | 0 | 0 | 0 | 0 | 0 | 1 | 0 | 1 | 1 | 4 | 0 | 0 | –
13 | NCCCC(N)(C(=O)O)C(F)F (configuration not stated) [EFLORNITHINE] | 0 | 0 | 0 | 0 | 0 | 0 | 0 | 0 | 0 | 0 | 0 | 0 | 0 | 0 | –
14 | CCOCCn1c(N2CCCN(C)CC2)nc2ccccc21 [EMEDASTINE] | 0 | 0 | 0 | 0 | 0 | 0 | 0 | 0 | 0 | 0 | 0 | 0 | 0 | 0 | –
15 | Nc1nc(=O)n([C@@H]2CS[C@H](CO)O2)cc1F [EMTRICITABINE] | – | – | – | – | – | – | – | – | – | – | – | – | – | – | HepSE_bilirubinemia ([1]; Liver): 0; HepSE_jaundice ([2]; Liver): 0; HepSE_hepatic necrosis ([3]; Liver): 0; HepSE_cirrhosis ([4]; Liver): 0; HepSE_liver fatty ([5]; Liver): 0; HepSE_cholelithiasis ([6]; Liver): 0; HepSE_liver disease ([7]; Liver): 0; HepSE_hepatitis ([8]; Liver): 0; HepSE_elevated liver function tests ([9]; Liver): 0; HepSE_hepatomegaly ([10]; Liver): 0; HepSE_hepatic failure ([11]; Liver): 0; HepSE_Combined Scores ([12]; Liver): 0; HepSE_cholecystitis ([13]; Liver): 0; HepSE_liver function tests abnormal ([14]; Liver): 0
16 | COc1ccc(C(=O)Nc2ccccc2CCC2CCCCN2C)cc1 (configuration not stated) [ENCAINIDE] | 0 | 1 | 0 | 0 | 0 | 0 | 0 | 1 | 0 | 0 | 0 | 2 | 0 | 0 | –
17 | CCN(CC)C(=O)/C(C#N)=C/c1cc(O)c(O)c([N+](=O)[O-])c1 [ENTACAPONE] | 1 | 0 | 0 | 0 | 0 | 1 | 0 | 1 | 0 | 0 | 1 | 5 | 1 | 0 | –
18 | NC1=NCC2c3ccccc3Cc3ccccc3N12 (configuration not stated) [EPINASTINE] | – | – | – | – | – | – | – | – | – | – | – | – | – | – | HepSE_bilirubinemia ([1]; Liver): 0; HepSE_jaundice ([2]; Liver): 0; HepSE_hepatic necrosis ([3]; Liver): 0; HepSE_cirrhosis ([4]; Liver): 0; HepSE_liver fatty ([5]; Liver): 0; HepSE_cholelithiasis ([6]; Liver): 0; HepSE_liver disease ([7]; Liver): 0; HepSE_hepatitis ([8]; Liver): 0; HepSE_elevated liver function tests ([9]; Liver): 0; HepSE_hepatomegaly ([10]; Liver): 0; HepSE_hepatic failure ([11]; Liver): 0; HepSE_Combined Scores ([12]; Liver): 0; HepSE_cholecystitis ([13]; Liver): 0; HepSE_liver function tests abnormal ([14]; Liver): 0
